Laboratory results: patent US9918990B2, “Substituted pyrrolo[2,3-c]pyridines and pyrazolo[3,4-c]pyridines as BET protein inhibitors” (Incyte Corporation, priority 2013, dated 2018)
Structures can show the parent of a compound that is named as a salt.

Experiments:
[1] = biological target: BRD4-BD1 (Homo sapiens (Human), UniProt O60885); assay: BRD4 AlphaScreen assay, BRD4-BD1; format: binding; conditions: H4Ac4 peptide, 75 min, room temperature, read-out: BRD4 BD-1 enzyme IC50
Method: (§1) BRD4-BD1 and BRD4-BD2 assays were conducted in white 384-well polystyrene plate in a final volume of 20 μL for BD1 and 40 μL for BD2. Inhibitors were first serially diluted in DMSO and added to the plate wells before the addition of other reaction components. […] After plate sealing, the plate was incubated in the dark at room temperature for 75 min. before reading on a PHERAstar FS plate reader (BMG Labtech). IC50 determination was performed by fitting the curve of percent control activity versus the log of the inhibitor concentration using the GraphPad Prism 5.0 software.

[2] = biological target: BRD4-BD2 (Homo sapiens (Human), UniProt O60885); assay: BRD4 AlphaScreen assay, BRD4-BD2; format: binding; conditions: H4Ac4 peptide, 75 min, room temperature, read-out: BRD4 BD-2 enzyme IC50
Method: as §1

[3] = tested on: C-myc; assay: KMS.12.BM C-myc ELISA assay; format: cell-based; conditions: Homo sapiens; KMS.12.BM cells, 2 hours, concentration required for 50% C-myc inhibition
Method: KMS.12.BM cell line (human myeloma) was purchased from JCRB (Osaka, Japan) and maintained in RPMI with 10% FBS culture medium. To measure the C-myc inhibitory activity of the compounds, the KMS.12.BM cells are plated in the RPMI culture medium at 75000 cells/well/per 200 μL into a 96-well flat bottom polystyrene tissue culture plate (Corning through VWR, NJ), in the presence or absence of a concentration range of test compounds. After 2 hours, cell are pelleted and lysed with Cell Extraction Buffer (BioSource, Carlsbad, Calif.) in the presence of protease inhibitors (Life Technologies, Grand Island, N.Y. and Sigma, St Louis, Mo.). Clarified lyses are tested in a C-myc commercial ELISA (Life Technologies, Grand Island, N.Y.). Compound inhibition is determined relative to cells cultured with no drug and the IC50 is reported as the compound concentration required for 50% C-myc inhibition. IC50 data for the Examples is presented in Table 10 as determined by Assay C1.

[4] = tested on: KMS.12.BM cells; assay: KMS.12.BM cell viability assay (Cell Titer-GLO, ATP quantitation); format: cell-based; conditions: Homo sapiens, 72 h, 3 days, concentration required for 50% cell death, read-out: KMS cellular IC50
Method: KMS.12.BM cell line (human myeloma) was purchased from JCRB (Osaka, Japan) and maintained in RPMI with 10% FBS culture medium. To measure the cytotoxic activity of the compounds through ATP quantitation, the KMS.12.BM cells are plated in the RPMI culture medium at 5000 cells/well/per 100 μL into a 96-well polystyrene clear black tissue culture plate (Greiner-bio-one through VWR, NJ), in the presence or absence of a concentration range of test compounds. After 3 days, […] Cell Titer-GLO Luminescent (Promega, Madison, Wis.) cell culture agent is added to each well for 10 minutes at room temperature to stabilize the luminescent signal. This determines the number of viable cells in culture based on quantitation of the ATP present, which signals the presence of metabolically active cells. Luminescence is measured with the Top Count 384 (Packard Bioscience through Perkin Elmer, Boston, Mass.). Compound inhibition is determined relative to cells cultured with no drug and the IC50 is reported as the compound concentration required for 50% cell death. IC50 data for the Examples is presented in Table 9 as determined by Assay B1.

IC50 [1]	IC50 [2]	IC50 [3]	SMILES	IC50 [4]
< 100 nM	< 100 nM	≤ 1000 nM	Cn1cc(-c2ccc3c(nnn3C)c2Oc2ccc(F)cc2F)c2cc[nH]c2c1=O [Example 9, 4-[4-(2,4-Difluorophenoxy)-1-methyl-1H-1,2,3-benzotriazol-5-yl]-6-methyl-1,6-dihydro-7H-pyrrolo[2,3-c]pyridin-7-one]	≤ 1000 nM
< 100 nM	< 100 nM	≤ 1000 nM	Cn1cc(-c2ccc3c(ncn3CCN3CCOCC3)c2Oc2ccccc2)c2cc[nH]c2c1=O [Example 43, 6-methyl-4-[1-(2-morpholin-4-ylethyl)-4-phenoxy-1H-benzimidazol-5-yl]-1,6-dihydro-7H-pyrrolo[2,3-c]pyridin-7-one]	≤ 1000 nM
< 100 nM	< 100 nM	≤ 1000 nM	Cn1cc(-c2ccc3c([nH]c(=O)n3C)c2Oc2ccc(F)cc2F)c2cn[nH]c2c1=O [Example 21, 4-[4-(2,4-Difluorophenoxy)-1-methyl-2-oxo-2,3-dihydro-1H-benzimidazol-5-yl]-6-methyl-1,6-dihydro-7H-pyrazolo[3,4-c]pyridin-7-one]	≤ 1000 nM
< 100 nM	< 100 nM	≤ 1000 nM	Cn1cc(-c2ccc3c(ncn3CC(=O)N3CCOCC3)c2Oc2ccc(F)cc2F)c2cc[nH]c2c1=O [Example 31, 4-[4-(2,4-difluorophenoxy)-1-(2-morpholin-4-yl-2-oxoethyl)-1H-benzimidazol-5-yl]-6-methyl-1,6-dihydro-7H-pyrrolo[2,3-c]pyridin-7-one]	≤ 1000 nM
< 100 nM	< 100 nM	≤ 1000 nM	Cn1cc(-c2ccc3c(c2OCC2CCC2)n(CCN2CCOCC2)c(=O)n3C)c2cc[nH]c2c1=O [Example 60, 4-(Cyclobutylmethoxy)-1-methyl-5-(6-methyl-7-oxo-6,7-dihydro-1H-pyrrolo[2,3-c]pyridin-4-yl)-3-(2-morpholin-4-ylethyl)-1,3-dihydro-2H-benzimidazol-2-one]	≤ 1000 nM
< 100 nM	< 100 nM	≤ 1000 nM	Cn1cc(-c2ccc3c([nH]c(=O)n3C)c2Oc2ccc(Cl)cc2)c2cc[nH]c2c1=O [Example 86, 4-(4-Chlorophenoxy)-1-methyl-5-(6-methyl-7-oxo-6,7-dihydro-1H-pyrrolo[2,3-c]pyridin-4-yl)-1,3-dihydro-2H-benzimidazol-2-one]	≤ 1000 nM
< 100 nM	< 100 nM	≤ 1000 nM	Cn1cc(-c2ccc3c(ncn3C)c2Oc2ccc(F)cc2F)c2cn[nH]c2c1=O [Example 18, 4-[4-(2,4-Difluorophenoxy)-1-methyl-1H-benzimidazol-5-yl]-6-methyl-1,6-dihydro-7H-pyrazolo[3,4-c]pyridin-7-one]	≤ 1000 nM
< 100 nM	< 100 nM	≤ 1000 nM	Cn1cc(-c2ccc3c([nH]c(=O)n3C)c2OCC2CCCCC2)c2cc[nH]c2c1=O [Example 88, 4-(Cyclohexylmethoxy)-1-methyl-5-(6-methyl-7-oxo-6,7-dihydro-1H-pyrrolo[2,3-c]pyridin-4-yl)-1,3-dihydro-2H-benzimidazol-2-one]	≤ 1000 nM
< 100 nM	< 100 nM	≤ 1000 nM	Cn1cc(-c2ccc3c(c2OCC2CCC2)n(Cc2ccccc2)c(=O)n3C)c2cc[nH]c2c1=O [Example 64, 3-Benzyl-4-(cyclobutylmethoxy)-1-methyl-5-(6-methyl-7-oxo-6,7-dihydro-1H-pyrrolo[2,3-c]pyridin-4-yl)-1,3-dihydro-2H-benzimidazol-2-one]	≤ 1000 nM
< 100 nM	< 100 nM	≤ 1000 nM	Cn1cc(-c2ccc3ncn(Cc4ccccc4)c3c2Oc2ccccc2)c2cc[nH]c2c1=O [Example 45, 4-(1-Benzyl-7-phenoxy-1H-benzimidazol-6-yl)-6-methyl-1,6-dihydro-7H-pyrrolo[2,3-c]pyridin-7-one]	≤ 1000 nM
< 100 nM	< 100 nM	≤ 1000 nM	Cn1cc(-c2ccc3[nH]c(=O)[nH]c3c2Oc2ccc(F)cc2)c2cc[nH]c2c1=O [Example 24, 4-(4-Fluorophenoxy)-5-(6-methyl-7-oxo-6,7-dihydro-1H-pyrrolo[2,3-c]pyridin-4-yl)-1,3-dihydro-2H-benzimidazol-2-one]	≤ 1000 nM
< 100 nM	< 100 nM	≤ 1000 nM	Cn1cc(-c2ccc3c(ncn3CCCC#N)c2Oc2ccccc2)c2cc[nH]c2c1=O [Example 52, 4-[5-(6-Methyl-7-oxo-6,7-dihydro-1H-pyrrolo[2,3-c]pyridin-4-yl)-4-phenoxy-1H-benzimidazol-1-yl]butanenitrile]	≤ 1000 nM
< 100 nM	< 100 nM	≤ 1000 nM	Cn1cc(-c2ccc3c(cnn3C)c2OCC2CC2)c2cc[nH]c2c1=O [Example 76, 4-[4-(Cyclopropylmethoxy)-1-methyl-1H-indazol-5-yl]-6-methyl-1,6-dihydro-7H-pyrrolo[2,3-c]pyridin-7-one]	≤ 1000 nM
< 100 nM	< 100 nM	≤ 1000 nM	Cn1cc(-c2ccc3c(ncn3C)c2Oc2ccc(F)cc2)c2cc[nH]c2c1=O [Example 59, 4-[4-(4-Fluorophenoxy)-1-methyl-1H-benzimidazol-5-yl]-6-methyl-1,6-dihydro-7H-pyrrolo[2,3-c]pyridin-7-one]	≤ 1000 nM
< 100 nM	< 100 nM	≤ 1000 nM	Cc1nc2c(Oc3ccc(F)cc3F)c(-c3cn(C)c(=O)c4[nH]ccc34)ccc2n1C [Example 5, 4-[4-(2,4-Difluorophenoxy)-1,2-dimethyl-1H-benzimidazol-5-yl]-6-methyl-1,6-dihydro-7H-pyrrolo[2,3-c]pyridin-7-one trifluoroacetate]	≤ 1000 nM
< 100 nM	< 100 nM	≤ 1000 nM	Cn1cc(-c2ccc3[nH]nnc3c2Oc2ccc(F)cc2F)c2cc[nH]c2c1=O [Example 8, 4-[4-(2,4-Difluorophenoxy)-1H-1,2,3-benzotriazol-5-yl]-6-methyl-1,6-dihydro-7H-pyrrolo[2,3-c]pyridin-7-one]	≤ 1000 nM
< 100 nM	< 100 nM	≤ 1000 nM	Cn1cc(-c2ccc3[nH]c(=O)[nH]c3c2Oc2ccc(F)cc2F)c2cn[nH]c2c1=O [Example 16, 4-[4-(2,4-Difluorophenoxy)-2-oxo-2,3-dihydro-1H-benzimidazol-5-yl]-6-methyl-1,6-dihydro-7H-pyrazolo[3,4-c]pyridin-7-one]	≤ 1000 nM
< 100 nM	< 100 nM	≤ 1000 nM	Cn1cc(-c2ccc3[nH]nnc3c2Oc2ccc(F)cc2F)c2cn[nH]c2c1=O [Example 10, 4-[4-(2,4-Difluorophenoxy)-1H-1,2,3-benzotriazol-5-yl]-6-methyl-1,6-dihydro-7H-pyrazolo[3,4-c]pyridin-7-one]	≤ 1000 nM
< 100 nM	< 100 nM	≤ 1000 nM	Cn1cc(-c2ccc3c(cnn3C)c2OCC2CC2)c2cn[nH]c2c1=O [Example 77, 4-[4-(Cyclopropylmethoxy)-1-methyl-1H-indazol-5-yl]-6-methyl-1,6-dihydro-7H-pyrazolo[3,4-c]pyridin-7-one]	≤ 1000 nM
< 100 nM	< 100 nM	≤ 1000 nM	Cn1cc(-c2ccc3oc(CN)nc3c2Oc2ccccc2)c2cc[nH]c2c1=O [Example 103, 4-[2-(Aminomethyl)-4-phenoxy-1,3-benzoxazol-5-yl]-6-methyl-1,6-dihydro-7H-pyrrolo[2,3-c]pyridin-7-one]	≤ 1000 nM

SMILES	IC50 [1]	IC50 [2]	IC50 [3]	IC50 [4]
Cn1cc(-c2ccc3c(ncn3C)c2Oc2ccc(F)cc2F)c2cc[nH]c2c1=O [Example 4, 4-[4-(2,4-Difluorophenoxy)-1-methyl-1H-benzimidazol-5-yl]-6-methyl-1,6-dihydro-7H-pyrrolo[2,3-c]pyridin-7-one trifluoroacetate]	< 100 nM	< 100 nM	≤ 1000 nM	≤ 1000 nM
